Laboratory results from US20100029542A1, “PROTEIN STERILISATION BY RADIATION AND ADDITION OF A STABILISING COMPOSITION” (priority 2006, published 2010).

Biological target: T1, glucose oxidase (Aspergillus niger, UniProt P13006)
T1 construct: purchased Biocatalysts G575P
Test: Activity recovery of glucose oxidase in dry formulations following gamma irradiation
Assay type: physicochemical
Conditions: glucose oxidase 350 μg mL^−1 prior to drying, dry, 25-40 kGy
Method: In each example, an aqueous solution of a protein was prepared with selected additives in an Eppendorf tube or in a glass vial. Water was removed from the formulation by drying under a stream of nitrogen at 30° C. and subsequent incubation at atmospheric pressure in the presence of a dessicant. The Eppendorf tubes or the glass vials were sealed and delivered to an industrial sterilisation service for gamma irradiation, with a dose range typical for sterile medical products. The gamma-irradiated samples were reconstituted on their return and analysed for protein activity or structural integrity. The results were compared with those achieved using control (i.e. non-irradiated) samples.
The dry samples (approx. 20 μg in an Eppendorf tube) were gamma-irradiated by an industry-standard commercial sterilising service provided by Isotron PLC (Swindon, Wilts, UK), using a Cobalt 60 gamma source at ambient temperature. The radiation dose was in the range of 25-40 kGy.
The original solutions (i.e. solutions prior to drying) contained 350 μg mL^−1 of glucose oxidase and typically the total of 100 mM of protective compounds (i.e. 100 mM in case of a single compound, 50 mM+50 mM in case of two compounds, 33.3 mM+33.3 mM+33.3 mM in the case of three compounds etc.). The solutions were dried and gamma irradiated. Following the gamma irradiation, the samples, both pre- and post-gamma irradiated, were assayed for glucose oxidase activity. This was performed according to the following procedure:
Water was added to the sample to achieve 350 μg mL^−1 of glucose oxidase. 50 μL of the solution was added to 50 mL of deionised water. The following solutions were then added: • 10 mL of reagent mix (5 parts of 0.1 M sodium phosphate, pH 6+4 parts 2% w/w starch+1 part of 1 mg/mL lactoperoxidase enzyme); • 5 mL of 100 mM potassium iodide; and • 5 mL of 20% w/w glucose solution.
These were mixed together quickly. Time=0 was counted from the addition of the glucose. After 5 min, 1 ml of 5 M aq. hydrochloric acid was added to stop the reaction. The absorbance was then read at 630 nm using a Unicam UV-visible spectrophotometer (Type: Helios gamma). If the colour intensity was too great to allow an accurate reading, the sample was diluted with a defined volume of deionised water to bring the colour back on scale. The results were expressed as percentage recovery, by reference to the absorbance measured in the pre-gamma irradiation samples.

Measured: Enzyme activity remaining after gamma-irradiation

T1 sequence (P13006 17-605): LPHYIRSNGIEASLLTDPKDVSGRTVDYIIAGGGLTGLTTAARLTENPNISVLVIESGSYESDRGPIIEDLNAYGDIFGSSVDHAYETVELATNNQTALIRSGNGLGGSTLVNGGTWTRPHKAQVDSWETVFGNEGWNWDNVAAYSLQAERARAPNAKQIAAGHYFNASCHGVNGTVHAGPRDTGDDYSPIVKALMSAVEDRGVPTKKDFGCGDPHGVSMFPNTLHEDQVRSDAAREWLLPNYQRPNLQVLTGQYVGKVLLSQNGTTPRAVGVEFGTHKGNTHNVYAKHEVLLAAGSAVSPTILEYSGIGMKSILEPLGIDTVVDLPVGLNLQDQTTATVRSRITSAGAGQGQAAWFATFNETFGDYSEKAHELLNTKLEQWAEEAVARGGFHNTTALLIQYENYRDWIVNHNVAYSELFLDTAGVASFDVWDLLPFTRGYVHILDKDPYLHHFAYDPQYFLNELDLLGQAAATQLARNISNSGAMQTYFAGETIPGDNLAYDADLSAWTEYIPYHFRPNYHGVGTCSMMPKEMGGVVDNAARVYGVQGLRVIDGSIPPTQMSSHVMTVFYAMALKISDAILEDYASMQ

CSCC[C@H](N)C(=O)O [Methionine]
61.3%: Table 3, prior-art antioxidants, ambient temperature, vs non-irradiated | Table 5, singlet oxygen scavengers, ambient temperature | Table 9, superoxide scavengers
